The numbers were not newly measured in US20200241005A1, “COMPOSITIONS AND METHODS FOR THE DIAGNOSIS AND TREATMENT OF DISEASES OF THE LIVER” (Viscient Biosciences, Inc., priority 2019, published 2020), which cites them from elsewhere.

In data set [1] the test system is SLC1A1. As to conditions: SLC1A1 vs SLC1A2 and SLC1A3.
For data set [2], the system named is SLC1A1. As to conditions: astroglial cells; unknown mechanism.

In the case of `N[C@H](C(=O)O)[C@H](Cc1ccccc1)C(=O)O` [L-beta-benzyl-aspartate], the “preference for SLC1A1 over its most related homologs SLC1A2 and SLC1A3” value in data set [1] was 10 fold. Turning to `Nc1nc2ccc(OC(F)(F)F)cc2s1` [Riluzole], in data set [2], the “effect on SLC1A1 expression” value is on record as “enhances SLC1A1 expression”.
